According to paper PMC5642494 (Oncotarget, 2017):

Tested on: HR+ and HR- breast cancer cell lines
Assay: Proliferation after washouts (EdU Click-iT) in breast cancer lines
Assay type: cell-based, human
Experimental: Images were SA-β-galactosidase immunocytochemical labeling taken by fluorescent microscopy using a Leica DMiL. […] SA-β-gal Cell samples were lysed after treatment with expression was determined using the Senescence Cells 100 μL lysis buffer and transferred to a 96-well plate. Histochemical Staining Kit (Sigma, CS0030) following 30 μL of each sample were transferred into deep well the vendor 's manual. Images were taken at 100x by bright plates using TECAN-EVO Workstation. Samples were field microscopy (Leica DMiL). treated for derivatization of the metabolites of interest and internal standards. For this, 50 μL of derivatization reagent Proliferation studies after washouts (EdU Click- and 80 μL of internal standard (IS, SupplementaryTable iT®) 1), were added with multidrop, plates were vortexed for 5 mins and let sit for one hour at 4 °C. The IS used were the Cells were plated onto poly-D-lysine D or 13C-labeled commercial analogues of nine of the ten coated 96-well plates at a density of 2,000-6,000 metabolites, prepared at 25 μM in water (Supplementary viable cells per well, and treated with abemaciblib or Table 1). The derivatization reagents (from Sigma), […] washout schedule shown on Supplementary Figure 1A. […] EdU Samples were analyzed by LC-MS/MS under the detection was performed using the Click-iT High Content conditions described below. […] Cell images were captured using a Cellomics Arrayscan VTI and analyzed Analysis of the derivatized-extracted samples with the Target Activation bio-application V.3 reading in 4 was carried out with an Agilent 6460 Triple Quadrupole channels at a magnification of 10X. […] The software relative levels and sub-cellular localization of EdU were for data collection and treatment was Agilent Masshunter determined through the respective intensities and locations Workstation. Mobile phases for chromatography were: of Alexa-488 fluorescence. mobile phase A: formic acid (5 mM) and ammonium formate (10 mM) in water; mobile phase B: acetonitrile. […]

## CCN1CCN(Cc2ccc(Nc3ncc(F)c(-c4cc(F)c5nc(C)n(C(C)C)c5c4)n3)nc2)CC1 [abemaciclib, Abemaciclib]
HR+ versus HR- breast cancer cell lines, exposure 2 hr, 24 hr or 72 hrs followed by washout
  DNA synthesis / proliferation as measured by EdU incorporation: preferentially reduced in HR+ compared to HR- cell lines
MDA-MB-468, BT549, BT20, HCC1937, HCC70
  sensitivity of HR- cell lines with RB1 mutation or loss (EdU incorporation): insensitive
